Assay results as given in US20260070945A1, “MACROCYCLIC IMMUNOMODULATORS” (Bristol-Myers Squibb Company, priority 2022, published 2026).
*1 amine or outer side, *2 acyl side, *3 side chain or, on linkers, in order; H or OH if unused. Where a SMILES comes first, the peptide text is derived from it. Bridges are numbered along the chain shown (N, C = ends). [ ]: non-standard residue; d: D form. The star is where a group is joined. Phe(4-COOH) = N[C@@H](Cc1ccc(C(=O)O)cc1)C(=O)O; Bip = N[C@@H](Cc1ccc(-c2ccccc2)cc1)C(=O)O; γGlu = O=C(O)[C@H](CCC(=O)[*:2])N[*:1]; βAsp = O=C(O)[C@H](CC(=O)[*:2])N[*:1]; aIle = CC[C@@H](C)[C@H](N)C(=O)O; hArg = N=C(N)NCCCC[C@H](N)C(=O)O; 4Pal = N[C@@H](Cc1ccncc1)C(=O)O; Cha = N[C@@H](CC1CCCCC1)C(=O)O; Carboxymethyl = O=C(O)C*; NMeA = CN[C@@H](C)C(=O)O; Orn = NCCC[C@H](N)C(=O)O; dDap = NC[C@@H](N)C(=O)O; Aun = NCCCCCCCCCCC(=O)O; Dab = NCC[C@H](N)C(=O)O; AEEA = NCCOCCOCC(=O)O

Target: T1, PD-1/PD-L1 interaction (PE-labeled human PD-L1-Ig binding to Jurkat cell line over-expressing human PD-1) (Homo sapiens, UniProt Q15116)
T1 construct: expressed in transfected cells; host or cells: Jurkat
Assay: Jurkat-PD-1 Cell Binding High-Content Screening Assay (CBA)
Details: Jurkat-hPD-1 cells, PE-labeled PD-L1-Ig 20 nM final; read-out: Jurkat HPD1 PDL1 IC50
Method in brief: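 Jurkat-hPD-1 cells (8×10^3/well) in DMEM with 10% fetal calf serum were preincubated with compound for 2 h at 37 °C. PE-labeled PD-L1-Ig was then added at 20 nM final for 1 h. Cells were fixed in paraformaldehyde with Hoechst 33342, washed and imaged by high-content imaging.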

T1 sequence (Q15116 25-288): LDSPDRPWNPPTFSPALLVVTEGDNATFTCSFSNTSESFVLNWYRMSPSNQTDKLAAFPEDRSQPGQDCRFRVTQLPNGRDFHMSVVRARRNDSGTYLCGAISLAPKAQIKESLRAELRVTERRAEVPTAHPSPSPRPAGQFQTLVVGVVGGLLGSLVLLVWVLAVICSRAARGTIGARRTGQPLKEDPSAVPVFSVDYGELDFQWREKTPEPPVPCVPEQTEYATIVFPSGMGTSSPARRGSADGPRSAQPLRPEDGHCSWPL

Point of comparison: `CC(C)C[C@@H]1NC(=O)[C@H](Cc2c[nH]c3ccccc23)NC(=O)[C@H](CC(=O)O)NC(=O)[C@H](Cc2ccc(OCC(=O)O)cc2)NC(=O)[C@H](Cc2ccncc2)NC(=O)CSC[C@@H](C(=O)N[C@@H](CC(N)=O)C(=O)N[C@@H](CC(=O)NCCOCCOCC(=O)NCCCCCCCCCCC(=O)O)C(=O)O)NC(=O)[C@H](CO)NC(=O)[C@H](C(C)C)NC(=O)[C@H](CC2CCCCC2)NC(=O)[C@H](CC(N)=O)NC(=O)[C@@H](CC(C)C)NC(=O)[C@H](C)N(C)C(=O)[C@H](C(C)C)NC(=O)[C@H](Cc2ccc(-c3ccccc3)cc2)NC1=O` [Example 2022] ({CH2CO}-[4Pal]Y(Carboxymethyl)DWL[Bip]V[NMeA][dL]N[Cha]VSCN[βAsp][AEEA][Aun]-OH; thioether N-14), IC50 0.129 µM. Against it:
- CC(C)C[C@@H]1NC(=O)[C@H](Cc2c[nH]c3ccccc23)NC(=O)[C@H](CC(=O)O)NC(=O)[C@H](Cc2ccc(OCC(=O)O)cc2)NC(=O)[C@H](CCCCNC(=N)N)NC(=O)CSC[C@@H](C(=O)N[C@@H](CC(N)=O)C(=O)NCCOCCOCC(=O)N[C@@H](CC(=O)NCCCCCCCCCCC(=O)O)C(=O)O)NC(=O)[C@H](CO)NC(=O)[C@H](C(C)C)NC(=O)[C@H](CC(C)C)NC(=O)[C@H](CC(N)=O)NC(=O)[C@@H](CC(C)C)NC(=O)[C@H](C)N(C)C(=O)[C@H](C(C)C)NC(=O)[C@H](Cc2ccc(-c3ccccc3)cc2)NC1=O [Example 2012] ({CH2CO}-[hArg]Y(Carboxymethyl)DWL[Bip]V[NMeA][dL]NLVSCN[AEEA][βAsp][Aun]-OH; thioether N-14) — 6.1-fold lower, 0.021 µM
- CC[C@@H](C)[C@@H]1NC(=O)[C@H](Cc2ccc(-c3ccccc3)cc2)NC(=O)[C@H](C(C)C)NC(=O)[C@H](Cc2c[nH]c3ccccc23)NC(=O)[C@H](CC(=O)O)NC(=O)[C@H](Cc2ccc(OCC(=O)O)cc2)NC(=O)[C@H](Cc2ccncc2)NC(=O)CSC[C@@H](C(=O)N[C@H](CN)C(=O)NCCOCCOCC(=O)N[C@@H](CCC(=O)NCCOCCOCC(=O)N[C@@H](CCC(=O)NCCOCCOCC(=O)N[C@@H](CCCN)C(=O)NCCCCCCCCCCC(=O)O)C(=O)O)C(=O)O)NC(=O)[C@H](Cc2c[nH]cn2)NC(=O)[C@H](C(C)C)NC(=O)[C@H](CC2CCCCC2)NC(=O)[C@H](CC(N)=O)NC(=O)[C@@H](CC(C)C)NC(=O)[C@H](C)N(C)C1=O [Example 2013] ({CH2CO}-[4Pal]Y(Carboxymethyl)DWV[Bip][aIle][NMeA][dL]N[Cha]VHC[dDap][AEEA][γGlu][AEEA][γGlu][AEEA][Orn][Aun]-OH; thioether N-14) — 1.7-fold lower, 0.0741 µM
- CC[C@@H](C)[C@@H]1NC(=O)[C@H](Cc2ccc(-c3ccccc3)cc2)NC(=O)[C@H](C(C)C)NC(=O)[C@H](Cc2c[nH]c3ccccc23)NC(=O)[C@H](CC(=O)O)NC(=O)[C@H](Cc2ccc(OCC(=O)O)cc2)NC(=O)[C@H](Cc2ccncc2)NC(=O)CSC[C@@H](C(=O)N[C@H](CN)C(=O)NCCOCCOCC(=O)N[C@@H](CCC(=O)NCCOCCOCC(=O)N[C@@H](CCC(=O)NCCOCCOCC(=O)N[C@@H](CCCN)C(=O)NCCCCCCCCCCC(=O)O)C(=O)O)C(=O)O)NC(=O)[C@H](CO)NC(=O)[C@H](C(C)C)NC(=O)[C@H](CC2CCCCC2)NC(=O)[C@H](CC(N)=O)NC(=O)[C@@H](CC(C)C)NC(=O)[C@H](C)N(C)C1=O [Example 2014] ({CH2CO}-[4Pal]Y(Carboxymethyl)DWV[Bip][aIle][NMeA][dL]N[Cha]VSC[dDap][AEEA][γGlu][AEEA][γGlu][AEEA][Orn][Aun]-OH; thioether N-14) — 3-fold lower, 0.0427 µM
- CC[C@@H](C)[C@@H]1NC(=O)[C@H](Cc2ccc(-c3ccccc3)cc2)NC(=O)[C@H](C(C)C)NC(=O)[C@H](Cc2c[nH]c3ccccc23)NC(=O)[C@H](CC(=O)O)NC(=O)[C@H](Cc2ccc(OCC(=O)O)cc2)NC(=O)[C@H](Cc2ccncc2)NC(=O)CSC[C@@H](C(=O)N[C@H](CC(N)=O)C(=O)NCCOCCOCC(=O)N[C@@H](CCC(=O)NCCOCCOCC(=O)N[C@@H](CCC(=O)NCCOCCOCC(=O)N[C@@H](CCCN)C(=O)NCCCCCCCCCCC(=O)O)C(=O)O)C(=O)O)NC(=O)[C@H](CO)NC(=O)[C@H](C(C)C)NC(=O)[C@H](CC2CCCCC2)NC(=O)[C@H](CCN)NC(=O)[C@@H](CC(C)C)NC(=O)[C@H](C)N(C)C1=O [Example 2015] ({CH2CO}-[4Pal]Y(Carboxymethyl)DWV[Bip][aIle][NMeA][dL][Dab][Cha]VSC[dN][AEEA][γGlu][AEEA][γGlu][AEEA][Orn][Aun]-OH; thioether N-14) — 14-fold lower, 0.0094 µM
- CC[C@@H](C)[C@@H]1NC(=O)[C@H](Cc2ccc(-c3ccccc3)cc2)NC(=O)[C@H](C(C)C)NC(=O)[C@H](Cc2c[nH]c3ccccc23)NC(=O)[C@H](CC(=O)O)NC(=O)[C@H](Cc2ccc(OCC(=O)O)cc2)NC(=O)[C@H](Cc2ccncc2)NC(=O)CSC[C@@H](C(=O)N[C@H](C)C(=O)NCCOCCOCC(=O)N[C@@H](CCC(=O)NCCOCCOCC(=O)N[C@@H](CCC(=O)NCCOCCOCC(=O)N[C@@H](CCCN)C(=O)NCCCCCCCCCCC(=O)O)C(=O)O)C(=O)O)NC(=O)[C@H](CO)NC(=O)[C@H](C(C)C)NC(=O)[C@H](CC2CCCCC2)NC(=O)[C@H](CC(N)=O)NC(=O)[C@@H](CC(C)C)NC(=O)[C@H](C)N(C)C1=O [Example 2016] ({CH2CO}-[4Pal]Y(Carboxymethyl)DWV[Bip][aIle][NMeA][dL]N[Cha]VSC[dA][AEEA][γGlu][AEEA][γGlu][AEEA][Orn][Aun]-OH; thioether N-14) — 3.3-fold lower, 0.0388 µM
- CC[C@@H](C)[C@@H]1NC(=O)[C@H](Cc2ccc(-c3ccccc3)cc2)NC(=O)[C@H](C(C)C)NC(=O)[C@H](Cc2c[nH]c3ccccc23)NC(=O)[C@H](CC(=O)O)NC(=O)[C@H](Cc2ccc(OCC(=O)O)cc2)NC(=O)[C@H](Cc2ccncc2)NC(=O)CSC[C@@H](C(=O)N[C@H](CC(N)=O)C(=O)NCCOCCOCC(=O)N[C@@H](CCC(=O)NCCOCCOCC(=O)N[C@@H](CCC(=O)NCCOCCOCC(=O)N[C@@H](CCCN)C(=O)NCCCCCCCCCCC(=O)O)C(=O)O)C(=O)O)NC(=O)[C@H](CO)NC(=O)[C@H](C(C)C)NC(=O)[C@H](CC2CCCCC2)NC(=O)[C@H](CC(N)=O)NC(=O)[C@@H](CC(C)C)NC(=O)[C@H](C)N(C)C1=O [Example 2017] ({CH2CO}-[4Pal]Y(Carboxymethyl)DWV[Bip][aIle][NMeA][dL]N[Cha]VSC[dN][AEEA][γGlu][AEEA][γGlu][AEEA][Orn][Aun]-OH; thioether N-14) — 5.3-fold lower, 0.0243 µM
- CC[C@@H](C)[C@@H]1NC(=O)[C@H](Cc2ccc(-c3ccccc3)cc2)NC(=O)[C@H](C(C)C)NC(=O)[C@H](Cc2c[nH]c3ccccc23)NC(=O)[C@H](CC(=O)O)NC(=O)[C@H](Cc2ccc(C(=O)O)cc2)NC(=O)[C@H](Cc2ccc(OCC(=O)O)cc2)NC(=O)CSC[C@@H](C(=O)N[C@H](CN)C(=O)NCCOCCOCC(=O)N[C@@H](CCC(=O)NCCOCCOCC(=O)N[C@@H](CCC(=O)NCCOCCOCC(=O)N[C@@H](CCCN)C(=O)NCCCCCCCCCCC(=O)O)C(=O)O)C(=O)O)NC(=O)[C@H](CO)NC(=O)[C@H](C(C)C)NC(=O)[C@H](CC2CCCCC2)NC(=O)[C@H](CC(N)=O)NC(=O)[C@@H](CC(C)C)NC(=O)[C@H](C)N(C)C1=O [Example 2018] ({CH2CO}-Y(Carboxymethyl)[Phe(4-COOH)]DWV[Bip][aIle][NMeA][dL]N[Cha]VSC[dDap][AEEA][γGlu][AEEA][γGlu][AEEA][Orn][Aun]-OH; thioether N-14) — 1.8-fold lower, 0.0737 µM
- CC[C@@H](C)[C@@H]1NC(=O)[C@H](Cc2ccc(-c3ccccc3)cc2)NC(=O)[C@H](C(C)C)NC(=O)[C@H](Cc2c[nH]c3ccccc23)NC(=O)[C@H](CC(=O)O)NC(=O)[C@H](Cc2ccc(OCC(=O)O)cc2)NC(=O)[C@H](Cc2ccncc2)NC(=O)CSC[C@@H](C(=O)NCCOCCOCC(=O)N[C@@H](CCC(=O)NCCOCCOCC(=O)N[C@@H](CCC(=O)NCCOCCOCC(=O)N[C@@H](CCCN)C(=O)NCCCCCCCCCCC(=O)O)C(=O)O)C(=O)O)NC(=O)[C@H](CO)NC(=O)[C@H](C(C)C)NC(=O)[C@H](CC2CCCCC2)NC(=O)[C@H](CC(N)=O)NC(=O)[C@@H](CC(C)C)NC(=O)[C@H](C)N(C)C1=O [Example 2019] ({CH2CO}-[4Pal]Y(Carboxymethyl)DWV[Bip][aIle][NMeA][dL]N[Cha]VSC[AEEA][γGlu][AEEA][γGlu][AEEA][Orn][Aun]-OH; thioether N-14) — 5.2-fold lower, 0.0249 µM
- CC[C@@H](C)[C@@H]1NC(=O)[C@H](Cc2ccc(-c3ccccc3)cc2)NC(=O)[C@H](C(C)C)NC(=O)[C@H](Cc2c[nH]c3ccccc23)NC(=O)[C@H](CC(=O)O)NC(=O)[C@H](Cc2ccc(O)cc2)NC(=O)[C@H](Cc2ccncc2)NC(=O)CSC[C@@H](C(=O)N[C@H](CC(N)=O)C(=O)NCCOCCOCC(=O)N[C@@H](CCC(=O)NCCOCCOCC(=O)N[C@@H](CCC(=O)NCCOCCOCC(=O)N[C@@H](CCCN)C(=O)NCCCCCCCCCCC(=O)O)C(=O)O)C(=O)O)NC(=O)[C@H](CO)NC(=O)[C@H](C(C)C)NC(=O)[C@H](CC2CCCCC2)NC(=O)[C@H](CC(N)=O)NC(=O)[C@@H](CC(C)C)NC(=O)[C@H](C)N(C)C1=O [Example 2020] ({CH2CO}-[4Pal]YDWV[Bip][aIle][NMeA][dL]N[Cha]VSC[dN][AEEA][γGlu][AEEA][γGlu][AEEA][Orn][Aun]-OH; thioether N-14) — 4.2-fold lower, 0.0305 µM
- CC[C@@H](C)[C@@H]1NC(=O)[C@H](Cc2ccc(-c3ccccc3)cc2)NC(=O)[C@H](C(C)C)NC(=O)[C@H](Cc2c[nH]c3ccccc23)NC(=O)[C@H](CC(=O)O)NC(=O)[C@H](Cc2ccc(C(=O)O)cc2)NC(=O)[C@H](Cc2ccc(OCC(=O)O)cc2)NC(=O)CSC[C@@H](C(=O)N[C@@H](CC(N)=O)C(=O)NCCOCCOCC(=O)N[C@@H](CCC(=O)NCCOCCOCC(=O)N[C@@H](CCC(=O)NCCOCCOCC(=O)N[C@@H](CCCN)C(=O)NCCCCCCCCCCC(=O)O)C(=O)O)C(=O)O)NC(=O)[C@H](CO)NC(=O)[C@H](C(C)C)NC(=O)[C@H](CC2CCCCC2)NC(=O)[C@H](CC(N)=O)NC(=O)[C@@H](CC(C)C)NC(=O)[C@H](C)N(C)C1=O [Example 2021] ({CH2CO}-Y(Carboxymethyl)[Phe(4-COOH)]DWV[Bip][aIle][NMeA][dL]N[Cha]VSCN[AEEA][γGlu][AEEA][γGlu][AEEA][Orn][Aun]-OH; thioether N-14) — 2.6-fold lower, 0.0489 µM
